The values that follow come from ChEMBL document CHEMBL5518188, “Discovery of 4-amino-1,6-dihydro-7H-pyrrolo[2,3-d]pyridazin-7-one derivatives as potential receptor-interacting serine/threonine-protein kinase 1 (RIPK1) inhibitors” (Eur J Med Chem, 2024).

The source made the active and inactive calls. No cut-off for these calls is given here.

In series [1] the target is Vascular endothelial growth factor receptor 3 (Homo sapiens) (UniProt P35916). The series can be described thus: Inhibition of FLT4 (unknown origin).
Another series relates to Mus musculus. Briefly: In vivo anti-necrotptic activity in po dosed SIRS mouse model assessed as reduction in IL-6 level measured at 4 hrs. It is filed as functional, organism-based. As to conditions: dose 2.5-10 mg/kg.
For another series, the system named is HT-29. The series can be described thus: Anti-necroptosis activity against TSZ-induced human HT-29 cells by microscopic analysis. It is filed as functional, cell-based.
Series [2] has as its target T1, Receptor-interacting serine/threonine-protein kinase 1 (Homo sapiens) (UniProt Q13546).
T1 sequence (whole entry): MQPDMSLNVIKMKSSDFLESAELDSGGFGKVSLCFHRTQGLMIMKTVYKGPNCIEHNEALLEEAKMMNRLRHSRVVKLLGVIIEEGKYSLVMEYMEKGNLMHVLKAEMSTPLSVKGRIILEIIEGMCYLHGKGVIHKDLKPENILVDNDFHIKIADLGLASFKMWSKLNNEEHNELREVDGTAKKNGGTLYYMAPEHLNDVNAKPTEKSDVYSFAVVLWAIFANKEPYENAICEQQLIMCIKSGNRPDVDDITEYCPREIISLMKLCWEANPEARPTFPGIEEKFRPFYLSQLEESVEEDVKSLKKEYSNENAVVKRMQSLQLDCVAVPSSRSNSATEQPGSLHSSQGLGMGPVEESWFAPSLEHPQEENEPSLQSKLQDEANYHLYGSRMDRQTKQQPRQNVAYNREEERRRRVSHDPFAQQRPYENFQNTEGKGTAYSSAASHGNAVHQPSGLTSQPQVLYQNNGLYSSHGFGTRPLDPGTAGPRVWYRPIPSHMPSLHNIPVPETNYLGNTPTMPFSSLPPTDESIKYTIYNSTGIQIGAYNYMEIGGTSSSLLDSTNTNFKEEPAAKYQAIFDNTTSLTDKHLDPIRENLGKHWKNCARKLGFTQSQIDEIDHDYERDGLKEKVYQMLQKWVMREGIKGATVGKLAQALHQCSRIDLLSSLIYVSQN
As to conditions: HT-29, dose 3.0 nM, time 6.0 hrs.

Series [3] addresses Receptor-interacting serine/threonine-protein kinase 3 (Homo sapiens, UniProt Q9Y572). As to conditions: HT-29, dose 300.0 nM, time <= 6.0 hrs, TDE = time-dependent effect.
Description: Inhibition of RIPK3 phosphorylation in TSZ-induced human HT-29 cells at 300 nM by Western blot analysis
A short description of series [4]: Half life in BALB/c mouse at 10 mg/kg, po. As to conditions: BALB/c, in vivo. It is filed as ADME, organism-based.
Series [5] in a line: Clearance in BALB/c mouse at 10 mg/kg, po. It is filed as ADME, organism-based. As to conditions: BALB/c, in vivo.
Series [6] addresses Tyrosine-protein kinase Lyn (Homo sapiens) (UniProt P07948). Briefly: Inhibition of LYN (unknown origin).
Series [7] can be described thus: Clearance in BALB/c mouse at 10 mg/kg, iv. Type of series: ADME, organism-based. As to conditions: in vivo.
Series [8] deals with Angiopoietin-1 receptor (Homo sapiens) (UniProt Q02763). The series can be described thus: Inhibition of Tie2 (unknown origin).
Series [9] concerns the target Vascular endothelial growth factor receptor 1 (Homo sapiens) (UniProt P17948). The series can be described thus: Inhibition of FLT1 (unknown origin).
Series [10] concerns the target T1, Receptor-interacting serine/threonine-protein kinase 1 (Homo sapiens). As to conditions: HT-29, dose 300.0 nM, time <= 6.0 hrs, TDE = time-dependent effect.
Description: Inhibition of RIPK1 phosphorylation in TSZ-induced human HT-29 cells at 300 nM by Western blot analysis
For series [11], the target named is T2, Mixed lineage kinase domain-like protein (Homo sapiens) (UniProt Q8NB16).
T2 sequence (whole entry): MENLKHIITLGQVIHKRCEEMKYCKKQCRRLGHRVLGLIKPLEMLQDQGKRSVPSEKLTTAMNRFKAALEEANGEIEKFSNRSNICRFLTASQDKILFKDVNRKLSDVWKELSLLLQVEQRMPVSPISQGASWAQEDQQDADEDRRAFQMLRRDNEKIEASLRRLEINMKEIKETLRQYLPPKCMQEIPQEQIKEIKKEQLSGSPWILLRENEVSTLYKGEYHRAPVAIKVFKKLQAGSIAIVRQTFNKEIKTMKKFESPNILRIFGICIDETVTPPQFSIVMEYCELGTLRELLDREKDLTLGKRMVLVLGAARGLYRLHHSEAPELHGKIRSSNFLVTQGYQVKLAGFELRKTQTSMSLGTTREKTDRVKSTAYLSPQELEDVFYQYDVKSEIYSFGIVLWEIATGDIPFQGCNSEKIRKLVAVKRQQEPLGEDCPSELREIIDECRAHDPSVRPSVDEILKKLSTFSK
As to conditions: HT-29, dose 300.0 nM, time <= 6.0 hrs, TDE = time-dependent effect.
Description: Inhibition of MLKL phosphorylation in TSZ-induced human HT-29 cells at 300 nM by Western blot analysis

Series [12] addresses NT-3 growth factor receptor (Homo sapiens) (UniProt Q16288). Briefly: Inhibition of TRKC (unknown origin).
Series [13] in a line: Apparent volume of distribution in BALB/c mouse at 10 mg/kg, iv. It is filed as ADME, organism-based. As to conditions: in vivo, read-out: Vz.
Series [14] is described as follows: Half life in BALB/c mouse at 10 mg/kg, iv. As to conditions: in vivo. It is filed as ADME, organism-based.
The nature of series [15]: Metabolic stability in cryopreserved human liver microsome assessed as half life. It is filed as ADME. As to conditions: cryopreserved liver microsomes.
A short description of series [16]: Selectivity ratio of Kd for binding affinity to RIPK1 (unknown origin) assessed as dissociation constant to Kd for binding affinity to RIPK3 (unknown origin) assessed as dissociation constant.
Series [17] can be described thus: AUC (0 to t) in BALB/c mouse at 10 mg/kg, po. Type of series: ADME, organism-based. As to conditions: BALB/c, in vivo.
The next series has as its system L929. Briefly: Anti-necroptosis activity against TSZ-induced mouse L929 cells. It is filed as functional, cell-based.

Vascular endothelial growth factor receptor 1 (Homo sapiens), sequence (P17948 whole entry): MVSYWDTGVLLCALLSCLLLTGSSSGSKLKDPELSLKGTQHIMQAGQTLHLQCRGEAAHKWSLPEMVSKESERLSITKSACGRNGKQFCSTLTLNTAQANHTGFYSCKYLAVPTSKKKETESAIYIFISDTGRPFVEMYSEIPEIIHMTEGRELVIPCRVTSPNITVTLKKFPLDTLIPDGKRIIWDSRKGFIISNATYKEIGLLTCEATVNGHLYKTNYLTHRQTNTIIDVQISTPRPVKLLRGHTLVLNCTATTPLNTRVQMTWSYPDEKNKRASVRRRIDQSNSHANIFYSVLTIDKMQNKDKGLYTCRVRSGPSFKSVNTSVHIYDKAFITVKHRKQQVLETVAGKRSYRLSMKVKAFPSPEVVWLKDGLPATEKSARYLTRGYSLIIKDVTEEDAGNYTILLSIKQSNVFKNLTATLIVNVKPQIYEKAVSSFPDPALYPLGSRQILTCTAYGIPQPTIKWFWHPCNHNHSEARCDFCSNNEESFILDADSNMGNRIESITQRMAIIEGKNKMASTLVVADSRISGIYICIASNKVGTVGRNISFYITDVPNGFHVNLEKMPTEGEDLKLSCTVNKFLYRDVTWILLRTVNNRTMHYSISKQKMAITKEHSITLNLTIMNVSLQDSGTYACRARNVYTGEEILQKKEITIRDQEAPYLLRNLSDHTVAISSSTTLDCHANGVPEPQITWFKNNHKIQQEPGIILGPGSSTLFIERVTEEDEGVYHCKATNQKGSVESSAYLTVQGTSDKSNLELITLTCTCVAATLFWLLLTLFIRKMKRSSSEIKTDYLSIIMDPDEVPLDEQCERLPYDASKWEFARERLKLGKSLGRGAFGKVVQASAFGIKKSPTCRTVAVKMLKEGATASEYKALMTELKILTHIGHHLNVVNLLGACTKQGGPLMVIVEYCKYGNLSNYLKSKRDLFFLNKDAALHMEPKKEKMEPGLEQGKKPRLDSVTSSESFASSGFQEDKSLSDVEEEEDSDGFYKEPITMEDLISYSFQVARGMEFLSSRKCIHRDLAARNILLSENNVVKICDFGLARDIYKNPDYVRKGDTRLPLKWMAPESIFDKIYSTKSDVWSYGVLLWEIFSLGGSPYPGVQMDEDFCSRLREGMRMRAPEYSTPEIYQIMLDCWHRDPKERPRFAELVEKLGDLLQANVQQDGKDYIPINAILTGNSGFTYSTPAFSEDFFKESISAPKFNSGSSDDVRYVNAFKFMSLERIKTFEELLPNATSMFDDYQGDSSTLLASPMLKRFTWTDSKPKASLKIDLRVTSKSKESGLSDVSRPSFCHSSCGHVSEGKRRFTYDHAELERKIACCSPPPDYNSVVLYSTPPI
Receptor-interacting serine/threonine-protein kinase 3, sequence (Q9Y572 whole entry, looked up): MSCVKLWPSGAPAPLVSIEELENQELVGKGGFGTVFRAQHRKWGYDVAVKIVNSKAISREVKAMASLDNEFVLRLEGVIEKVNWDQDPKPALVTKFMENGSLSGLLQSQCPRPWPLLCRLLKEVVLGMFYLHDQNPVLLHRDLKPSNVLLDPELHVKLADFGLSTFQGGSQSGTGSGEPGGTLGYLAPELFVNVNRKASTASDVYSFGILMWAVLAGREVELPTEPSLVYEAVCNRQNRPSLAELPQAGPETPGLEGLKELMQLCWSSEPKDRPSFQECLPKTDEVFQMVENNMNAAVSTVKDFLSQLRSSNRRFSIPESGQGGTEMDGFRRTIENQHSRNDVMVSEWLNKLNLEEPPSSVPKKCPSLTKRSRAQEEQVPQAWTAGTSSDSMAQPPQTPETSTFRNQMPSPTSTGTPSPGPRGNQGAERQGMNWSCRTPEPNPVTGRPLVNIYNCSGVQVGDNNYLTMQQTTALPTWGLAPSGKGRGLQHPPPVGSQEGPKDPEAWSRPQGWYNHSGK
NT-3 growth factor receptor (Homo sapiens), sequence (Q16288 32-839 limits assumed): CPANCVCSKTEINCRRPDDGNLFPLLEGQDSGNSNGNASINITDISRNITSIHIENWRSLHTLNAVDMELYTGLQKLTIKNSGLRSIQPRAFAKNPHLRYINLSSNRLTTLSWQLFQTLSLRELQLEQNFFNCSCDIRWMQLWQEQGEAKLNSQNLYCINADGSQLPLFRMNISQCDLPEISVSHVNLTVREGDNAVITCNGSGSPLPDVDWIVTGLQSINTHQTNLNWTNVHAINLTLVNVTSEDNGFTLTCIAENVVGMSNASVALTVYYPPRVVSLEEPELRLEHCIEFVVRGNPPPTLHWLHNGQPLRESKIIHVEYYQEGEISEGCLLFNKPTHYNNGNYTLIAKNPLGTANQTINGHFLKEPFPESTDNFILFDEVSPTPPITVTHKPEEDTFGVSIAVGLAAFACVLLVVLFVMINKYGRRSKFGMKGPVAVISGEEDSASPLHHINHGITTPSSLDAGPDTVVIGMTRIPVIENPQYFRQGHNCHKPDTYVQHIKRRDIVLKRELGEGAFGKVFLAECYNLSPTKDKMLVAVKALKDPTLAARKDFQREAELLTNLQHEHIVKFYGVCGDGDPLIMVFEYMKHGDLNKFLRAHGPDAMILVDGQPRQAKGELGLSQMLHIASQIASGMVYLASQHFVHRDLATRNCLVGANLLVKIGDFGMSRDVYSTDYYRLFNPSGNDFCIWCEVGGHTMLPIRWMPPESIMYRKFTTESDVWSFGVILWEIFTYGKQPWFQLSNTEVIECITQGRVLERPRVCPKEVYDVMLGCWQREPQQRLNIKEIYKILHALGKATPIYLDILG
Angiopoietin-1 receptor (Homo sapiens), sequence (Q02763 whole entry): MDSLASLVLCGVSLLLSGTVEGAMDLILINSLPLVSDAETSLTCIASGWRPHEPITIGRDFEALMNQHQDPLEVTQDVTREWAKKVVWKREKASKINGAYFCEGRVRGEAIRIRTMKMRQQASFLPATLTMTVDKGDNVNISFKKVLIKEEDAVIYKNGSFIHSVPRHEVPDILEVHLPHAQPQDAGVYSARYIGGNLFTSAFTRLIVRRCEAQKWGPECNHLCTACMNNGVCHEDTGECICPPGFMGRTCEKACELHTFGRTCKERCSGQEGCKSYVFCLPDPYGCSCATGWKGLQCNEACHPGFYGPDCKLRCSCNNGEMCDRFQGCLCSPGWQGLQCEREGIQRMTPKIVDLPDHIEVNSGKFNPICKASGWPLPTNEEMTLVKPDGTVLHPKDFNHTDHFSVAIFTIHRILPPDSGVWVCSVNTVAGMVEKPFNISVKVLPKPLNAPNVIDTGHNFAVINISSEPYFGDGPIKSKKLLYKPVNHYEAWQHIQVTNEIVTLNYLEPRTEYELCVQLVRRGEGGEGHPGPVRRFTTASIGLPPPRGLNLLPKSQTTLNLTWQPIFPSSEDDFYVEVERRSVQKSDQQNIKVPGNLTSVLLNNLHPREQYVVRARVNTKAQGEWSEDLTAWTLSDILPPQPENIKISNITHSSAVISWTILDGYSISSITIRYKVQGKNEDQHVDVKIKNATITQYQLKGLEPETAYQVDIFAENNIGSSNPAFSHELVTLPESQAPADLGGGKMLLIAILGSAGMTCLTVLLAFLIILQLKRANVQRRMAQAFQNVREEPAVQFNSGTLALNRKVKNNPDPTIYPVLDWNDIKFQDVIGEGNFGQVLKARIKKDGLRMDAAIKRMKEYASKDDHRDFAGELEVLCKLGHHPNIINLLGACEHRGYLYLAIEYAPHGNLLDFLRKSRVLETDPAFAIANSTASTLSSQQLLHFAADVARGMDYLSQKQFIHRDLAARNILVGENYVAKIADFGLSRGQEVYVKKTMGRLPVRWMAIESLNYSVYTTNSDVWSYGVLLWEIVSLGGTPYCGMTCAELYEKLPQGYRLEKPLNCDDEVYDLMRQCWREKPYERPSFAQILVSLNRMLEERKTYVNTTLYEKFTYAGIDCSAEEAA
Tyrosine-protein kinase Lyn (Homo sapiens), sequence (P07948 2-512 limits assumed): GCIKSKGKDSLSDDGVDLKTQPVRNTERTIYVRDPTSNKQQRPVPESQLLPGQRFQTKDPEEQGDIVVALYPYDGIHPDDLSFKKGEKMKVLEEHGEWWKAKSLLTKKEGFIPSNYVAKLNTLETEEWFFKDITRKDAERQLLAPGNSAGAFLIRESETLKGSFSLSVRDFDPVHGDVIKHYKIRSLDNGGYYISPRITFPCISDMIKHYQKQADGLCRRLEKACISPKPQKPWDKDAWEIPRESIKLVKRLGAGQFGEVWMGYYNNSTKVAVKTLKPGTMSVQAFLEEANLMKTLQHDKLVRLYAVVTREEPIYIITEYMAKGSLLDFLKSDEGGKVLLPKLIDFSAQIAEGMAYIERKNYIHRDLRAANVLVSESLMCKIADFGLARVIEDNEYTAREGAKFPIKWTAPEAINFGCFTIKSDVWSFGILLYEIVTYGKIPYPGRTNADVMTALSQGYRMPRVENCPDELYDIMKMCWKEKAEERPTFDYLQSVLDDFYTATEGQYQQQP

As for `CC1(Cn2cc(-c3ccc4c(c3)CCN4C(=O)Cc3cccc(OC(F)(F)F)c3)c3c(N)n[nH]c(=O)c32)COC1`, the inhibition result in series [1], in series [6], in series [8], in series [9] and in series [12] was “Active” throughout. Besides, the Activity entry with Mus musculus was “Dose-Dependent Effect”. In addition, in the series on HT-29, the result was Active. The inhibition result in series [2] is “Dose-Dependent Effect”; in [3], “Tde”; in series [10] it was “Tde”; in series [11], “Tde”. The figures for the half-life in series [4], in series [14] and in series [15] were 1.04 h, 0.83 h and 1.26 h, respectively. Also, the CL/F in series [5] is 17.3 mL/min/kg. For the same compound, the clearance in series [7] is 17.3 mL/min/kg. In addition, in series [13], the Vd turned out to be 1.24 L/kg. The Selectivity ratio in [16] was 486. This compound returned an area under the curve AUC(0-t) in series [17] of 9640 ng·h/mL. Also, the EC50 in the series with L929 worked out at 1.06 nM.
